Measurements published in patent US20260116944A1, “NOVEL TRIPLE GLP-1/GIP/GLUCAGON RECEPTOR AGONIST AND A PHARMACEUTICAL COMPOSITION FOR PREVENTING OR TREATING OBESITY COMPRISING THE SAME” (HANMI PHARM. CO., LTD., priority 2022, published 2026).
*1 amine or outer side, *2 acyl side, *3 side chain or, on linkers, in order; H or OH if unused. Bridges are numbered along the chain shown (N, C = ends). Where no end group is shown, it is not given here. Side-chain parts run from the residue outwards. [ ]: non-standard residue; d: D form. The star is where a group is joined. C20 diacid = O=C(O)CCCCCCCCCCCCCCCCCCC(=O)*; γGlu = O=C(O)[C@H](CCC(=O)[*:2])N[*:1]; AEEA = NCCOCCOCC(=O)O; Aib = CC(C)(N)C(=O)O

Assay: Weight loss effect in AMLN diet-induced obese mice
Assay type: in vivo
Settings: 351 ug/kg, Q2D, subcutaneously, 2 weeks, vs. excipient control, p<0.001 one-way ANOVA, FIG. 1
Procedure: In order to confirm the weight loss effect of each of the three triple agonists of SEQ ID NO: 1, SEQ ID NO: 2, and SEQ ID NO: 4 prepared in the Example above, an AMLN (amylin) mouse model, known as an obesity model, was used. AMLN diet-induced mice were divided into an excipient control group and groups administered with three types of triple agonists (351 ug/kg, Q2D, subcutaneously), and the administration was repeated for 2 weeks.
After repeated administration for 2 weeks, the body weight was measured, and the change in body weight relative to the body weight immediately before administration (DO) was measured to evaluate weight loss effect.

## Y-Aib-QGTFTSDYSK(1)YLDEKRAKDFVQWLLDHHPSSGQPPPS (Y[Aib]QGTFTSDYSK([AEEA-AEEA-γGlu-C20 diacid])YLDEKRAKDFVQWLLDHHPSSGQPPPS-NH2; lactam 16-20; N-terminus assumed; SMILES CC(C)C[C@H](NC(=O)[C@H](Cc1ccc(O)cc1)NC(=O)[C@H](CCCCNC(=O)COCCOCCNC(=O)COCCOCCNC(=O)CC[C@H](NC(=O)CCCCCCCCCCCCCCCCCCC(=O)O)C(=O)O)NC(=O)[C@H](CO)NC(=O)[C@H](Cc1ccc(O)cc1)NC(=O)[C@H](CC(=O)O)NC(=O)[C@H](CO)NC(=O)[C@@H](NC(=O)[C@H](Cc1ccccc1)NC(=O)[C@@H](NC(=O)CNC(=O)[C@H](CCC(N)=O)NC(=O)C(C)(C)NC(=O)[C@@H](N)Cc1ccc(O)cc1)[C@@H](C)O)[C@@H](C)O)C(=O)N[C@@H](CC(=O)O)C(=O)N[C@H]1CCC(=O)NCCCC[C@@H](C(=O)N[C@@H](CC(=O)O)C(=O)N[C@@H](Cc2ccccc2)C(=O)N[C@H](C(=O)N[C@@H](CCC(N)=O)C(=O)N[C@@H](Cc2c[nH]c3ccccc23)C(=O)N[C@@H](CC(C)C)C(=O)N[C@@H](CC(C)C)C(=O)N[C@@H](CC(=O)O)C(=O)N[C@@H](Cc2c[nH]cn2)C(=O)N[C@@H](Cc2c[nH]cn2)C(=O)N2CCC[C@H]2C(=O)N[C@@H](CO)C(=O)N[C@@H](CO)C(=O)NCC(=O)N[C@@H](CCC(N)=O)C(=O)N2CCC[C@H]2C(=O)N2CCC[C@H]2C(=O)N2CCC[C@H]2C(=O)N[C@@H](CO)C(N)=O)C(C)C)NC(=O)[C@H](C)NC(=O)[C@H](CCCNC(=N)N)NC(=O)[C@H](CCCCN)NC1=O) [SEQ ID NO: 4, acylated triple agonist peptide, K(1) at position 12, lactam bridge E16-K20]
  weight loss efficacy (change in body weight relative to immediately before administration): significant weight loss efficacy
